Holding throughout (format): cell-based
The subject of assay [1] is NIH/3T3 BTK C481S cells. Nature of the assay: Phosphor-BTK(Y223) assay, adherent cells. As to conditions: Mus musculus, NIH3T3, phosphorylated BTK Y223, NIH/3T3 BTK C481S cells; read-out: NIH/3T3 BTK-C481S pBTK. How it is done: (§1) The purpose of this assay was to simply, quickly and directly detect the level of endogenous BTK phosphorylation in cells.
(§2) The steps for handling adherent cells were as follows: • 1) NIH/3T3 BTK WT cells (7.5 k/well) and NIH/3T3 BTK C481S cells (10 k/well) were plated in a 96-well plate, respectively, and cultured at 37 °C and 5% CO2 overnight. • 2) A 3-fold final concentration gradient dilution of a compound was prepared, and 50 µL of it was taken and added to 100 µL of cell culture. 0.5% DMSO was used as a positive control for cell growth. • 3) The plate was incubated at 37 °C and 5% CO2 for 0.5 h. • 4) Na3VO4 at a final concentration of 1mM was added, and the plate was incubated at 37 °C and 5% CO2 for 2 hours. • 5) During the incubation, the following reagents were prepared: • 1x added lysis buffer: 3 vol ddH2O + 1 vol 4x lysis buffer + 100x blocking reagent. • p-BTK (Y223) cryptate-antibody and p-BTK (Y223) d2-antibody working solutions: 1 volume of each cryopreserved antibody (stored at - 20 °C) was added to 19 times the volume of assay buffer (stored at 4 °C). • 6) After the incubation was completed, the medium was removed and 50 µL of 1x added lysis buffer was added. The plate was centrifuged at 500 rpm at room temperature for 30 min. • 7) The lysate was mixed well and 16 µL of it was transferred to a 384-well plate. 1 × added lysis buffer was used as a blank control. • 8) 4 µL of pre-mixed working solutions of the two antibodies (cryptate Ab:d2 Ab = 1:1) was added, and the plate was sealed. • 9) The plate was incubated at room temperature overnight. 10) The plate was read at 665nm and 620nm using Biotek cytation3.0 microplate reader, and the ratio of 665/620nm of each well was calculated.
(§3) The IC50 (half-maximal phosphorylation inhibitory concentration) of the phosphorylated BTK Y223 of the compound was obtained using the following nonlinear fitting formula: Y = Bottom + (Top−Bottom)/(1+10^(∧)((LogIC50−X)*HillSlope)) [formula] • X: Log value of the compound concentration • Y: Inhibition rate (% inhibition) • Top: Maximum response • Bottom: Baseline response • HillSlope: Slope of the curve
(§4) The formula for calculating cell phosphorylation inhibition rate (inhibition rate %) was: Inhibition rate% = 1−(eachconcentrationwell-blankwell)/(positivecontrolwell−blankwell) [formula]

In assay [2] the test system is NIH/3T3 BTK WT cells. Nature of the assay: Phosphor-BTK(Y223) assay, adherent cells. As to conditions: Mus musculus, NIH3T3, phosphorylated BTK Y223, NIH/3T3 BTK WT cells; read-out: NIH/3T3 BTK-WT pBTK. How it is done:
as §1, §2, §3, §4

The test system of assay [3] is Ramos cells with BTK WT. Nature of the assay: Phosphor-BTK(Y223) assay, suspended cells. As to conditions: Homo sapiens, Ramos, phosphorylated BTK Y223, Ramos cells with BTK WT. How it is done: as §1
The steps for handling suspended cells were as follows: • 1) Ramos cells with BTK WT (2.5 k/well), BTK C481S (2.5 k/well), or BTK T474I (2.5 k/well) were plated in a 96-well plate, respectively. A compound of different concentration gradients was added using Tecan D300e, and the plate was incubated at 37 °C and 5% CO2 for 2 hours. • 2) 8.33 µL of 20 mM Na3VO4 was added to bring the final concentration to 5 mM, and the plate was incubated at 37 °C and 5% CO2 for 3 h. • 3) During the incubation, the following reagents were prepared: • 4x added lysis buffer: 24 vol 4x lysis buffer + 1 vol 25x blocking reagent. • p-BTK (Y223) cryptate-antibody and p-BTK (Y223) d2-antibody working solutions: 1 volume of each cryopreserved antibody (stored at - 20 °C) was added to 38 times the volume of assay buffer (stored at 4 °C), and mixed well. • 4) After the incubation was completed, 11.1 µL of 4x added lysis buffer was directly added. The plate was shaken at 800 rpm at room temperature for 30 min. • 5) The lysate was mixed well and 16 µL of it was transferred to a 384-well plate. 1 × added lysis buffer was used as a blank control. • 6) 4 µL of pre-mixed working solutions of the two antibodies (cryptate Ab:d2 Ab = 1:1) was added, and the plate was sealed. • 7) The plate was incubated at room temperature overnight. • 8) The plate was read at 665nm and 620nm using Biotek cytation3.0 microplate reader, and the ratio of 665/620nm of each well was calculated. Data analysis: IC50 was calculated using GraphPad Prism 7.0 software.
as §3, §4

SMILES strings stand for the structures.

As to `COc1ccc(F)cc1C(=O)NCc1ccc(-c2ncc(-c3cnc4cnccn34)c3[nH]nc(N)c23)cc1` [Example 64, N-(4-(3-amino-7-(imidazo[1,2-a]pyrazin-3-yl)-1H-pyrazolo[4,3-c]pyridin-4-yl)benzyl)-5-fluoro-2-methoxybenzamide], the IC50 in assay [1], in assay [2] and in assay [3] was above 50 nM in each case.

For `COc1ccc(F)cc1C(=O)NCc1ccc(-c2ncc(C(=O)NC3CC3)c3[nH]nc(N)c23)cc1` [Example 81, 3-amino-N-cyclopropyl-4-(4-((5-fluoro-2-methoxybenzoylamino)methyl)phenyl)-1H-pyrazolo[4,3-c]pyridine-7-carboxamide], the IC50 in assay [1], in assay [2] and in assay [3] was above 50 nM in each case.

For `COc1ccc(F)cc1C(=O)NCc1ccc(-c2ncc(-c3ccc(F)cn3)c3[nH]nc(N)c23)c(C)c1` [Example 83, N-(4-(3-amino-7-(5-fluoropyridin-2-yl)-1H-pyrazolo[4,3-c]pyridin-4-yl)-3-methylbenzyl)-5-fluoro-2-methoxybenzamide], the IC50 in assay [1] is above 50 nM; in assay [2], 10 to 50 nM; in assay [3], above 50 nM.

For the molecule `COc1ccc(F)cc1C(=O)NCc1ccc(-c2nc(-c3ccccc3C)cc3[nH]nc(N)c23)cc1` [Example 87, N-(4-(3-amino-6-(o-tolyl)-1H-pyrazolo[4,3-c]pyridin-4-yl)benzyl)-5-fluoro-2-methoxybenzamide], the IC50 in assay [1], in assay [2] and in assay [3] was above 50 nM throughout.

Turning to `COc1ccc(F)cc1C(=O)NCc1ccc(-c2nc(-c3ccccc3Cl)cc3[nH]nc(N)c23)cc1` [Example 88, N-(4-(3-amino-6-(2-chlorophenyl)-1H-pyrazolo[4,3-c]pyridin-4-yl)benzyl)-5-fluoro-2-methoxybenzamide], the IC50 was above 50 nM in assay [1], 10 to 50 nM in assay [2] and 5 to 10 nM in assay [3].

Turning to `COc1ccc(F)cc1C(=O)NCc1ccc(-c2nc(-c3c(Cl)cccc3Cl)cc3[nH]nc(N)c23)cc1` [Example 89, N-(4-(3-amino-6-(2,6-dichlorophenyl)-1H-pyrazolo[4,3-c]pyridin-4-yl)benzyl)-5-fluoro-2-methoxybenzamide], the IC50 in assay [1] was above 50 nM; in assay [2], 10 to 50 nM; in assay [3], 10 to 50 nM.

Take `COc1ccc(F)cc1C(=O)NCc1ccc(-c2nc(-c3ccc(C(=O)O)cc3)cc3[nH]nc(N)c23)cc1` [Example 90, 4-(3-amino-4-(4-((5-fluoro-2-methoxybenzoylamino)methyl)phenyl)-1H-pyrazolo[4,3-c]pyridin-6-yl)benzoic acid]: the IC50 in assay [1], in assay [2] and in assay [3] was above 50 nM each time.

For the molecule `Nc1n[nH]c2cc(C3CC[S+]([O-])CC3)nc(-c3ccc(CNC(=O)c4cc(F)ccc4O)cc3)c12` (stereo not drawn) [Example 92, N-(4-(3-amino-6-(1-oxidotetrahydro-2H-thiopyran-4-yl)-1H-pyrazolo[4,3-c]pyridin-4-yl)benzyl)-5-fluoro-2-hydroxybenzamide], the IC50 in assay [1] is above 50 nM; in assay [2], above 50 nM; in assay [3], 10 to 50 nM.

For `COc1ccc(F)cc1C(=O)NCc1ccc(-c2nc(C3CCS(=O)(=O)CC3)cc3[nH]nc(N)c23)cc1` [Example 93, N-(4-(3-amino-6-(1,1-dioxidotetrahydro-2H-thiopyran-4-yl)-1H-pyrazolo[4,3-c]pyridin-4-yl)benzyl)-5-fluoro-2-methoxybenzamide], the IC50 in assay [1], in assay [2] and in assay [3] was above 50 nM throughout.

On to `COc1ccc(F)cc1C(=O)NCc1ccc(-c2nc(Cl)cc3[nH]nc(N)c23)cc1` [Example 94, N-(4-(3-amino-6-chloro-1H-pyrazolo[4,3-c]pyridin-4-yl)benzyl)-5-fluoro-2-methoxybenzamide], for which the IC50 in assay [1], in assay [2] and in assay [3] was above 50 nM each time.

On to `COc1ccc(F)cc1C(=O)NCc1ccc(-c2nc(C3CCCN(C(=O)Nc4ccccc4)C3)cc3[nH]nc(N)c23)cc1` (stereo not drawn) [Example 95, 3-(3-amino-4-(4-((5-fluoro-2-methoxybenzoylamino)methyl)phenyl)-1H-pyrazolo[4,3-c]pyridin-6-yl)-N-phenylpiperidine-1-carboxamide], for which the IC50 in assay [1] was above 50 nM; in assay [2], above 50 nM; in assay [3] it was 5 to 10 nM.

On to `COc1ccc(F)cc1C(=O)NCc1ccc(-c2nc(C3CCN(C(=O)Nc4ccccc4)CC3)cc3[nH]nc(N)c23)cc1` [Example 97, 4-(3-amino-4-(4-((5-fluoro-2-methoxvbenzoylamino)methyl)phenyl)-1H-pyrazolo[4,3-c]pyridin-6-yl)-N-phenylpiperidine-1-carboxamide], for which the IC50 was above 50 nM in assay [1], above 50 nM in assay [2] and 5 to 10 nM in assay [3].

Take `COc1ccc(F)cc1C(=O)NCc1ccc(-c2ncc(-c3cnn4ccncc34)c3[nH]nc(N)c23)cc1` [Example 109, N-(4-(3-amino-7-(pyrazolo[1,5-a]pyrazin-3-yl)-1H-pyrazolo[4,3-c]pyridin-4-yl)benzyl)-5-fluoro-2-methoxybenzamide]: the IC50 in assay [1], in assay [2] and in assay [3] was above 50 nM throughout.

For `COc1ccc(F)cc1C(=O)NCc1ccc(-c2ncc(-c3cnc4cccnn34)c3[nH]nc(N)c23)cc1` [Example 110, N-(4-(3-amino-7-(imidazo[1,2-b]pyridazin-3-yl)-1H-pyrazolo[4,3-c]pyridin-4-yl)benzyl)-5-fluoro-2-methoxybenzamide], the IC50 in assay [1], in assay [2] and in assay [3] was above 50 nM each time.

As for `COc1ccc(F)cc1C(=O)NCc1ccc(-c2ncc(-c3ccnc4ccnn34)c3[nH]nc(N)c23)cc1` [Example 111, N-(4-(3-amino-7-(pyrazolo[1,5-a]pyrimidin-7-yl)-1H-pyrazolo[4,3-c]pyridin-4-yl)benzyl)-5-fluoro-2-methoxybenzamide], the IC50 in assay [1], in assay [2] and in assay [3] was above 50 nM in each case.

For the molecule `COc1ccc(F)cc1C(=O)NCc1ccc(-c2ncc(-c3ncn4ccccc34)c3[nH]nc(N)c23)cc1` [Example 113, N-(4-(3-amino-7-(imidazo[1,5-a]pyridin-1-yl)-1H-pyrazolo[4,3-c]pyridin-4-yl)benzyl)-5-fluoro-2-methoxybenzamide], the IC50 in assay [1], in assay [2] and in assay [3] was at most 5 nM in each case.

For `COc1ccc(F)cc1C(=O)NCc1ccc(-c2nccc3[nH]nc(N)c23)cc1` [Example 116, N-(4-(3-amino-1H-pyrazolo[4,3-c]pyridin-4-yl)benzyl)-5-fluoro-2-methoxvbenzamide], the IC50 in assay [1], in assay [2] and in assay [3] was above 50 nM each time.

Source of the values: EP4741392A1, “1H-PYRAZOLO[4,3-C]PYRIDINE COMPOUND, AND COMPOSITION THEREOF AND USE THEREOF” (Shenzhen TargetRx Co., Ltd., priority 2023, dated 2025).
